“And” between values parts separate entries of the source, which are not always exact repeats. Equal values may be shown once.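 Method: 48-hour compound exposure of cells in 96-well plates, five concentrations, linear interpolation of endpoints. Abbreviation: GI50, concentration required for 50% inhibition of growth. TGI denotes the concentration required for complete inhibition of growth.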
Columns and labels:
Experiment in all cases: NCI tumour cell line growth inhibition, 48 h
DMS 114 small cell lung = tested on: DMS 114 small cell lung
DMS 273 small cell lung = tested on: DMS 273 small cell lung
HOP-18 NSCLC = tested on: HOP-18 NSCLC
KM20L2 colon = tested on: KM20L2 colon
LXFL 529 NSCLC = tested on: LXFL 529 NSCLC
MDA-N = tested on: MDA-N
P388 leukemia = tested on: P388 leukemia
P388/ADR leukemia = tested on: P388/ADR leukemia
RXF-631 renal = tested on: RXF-631 renal
SNB-78 CNS = tested on: SNB-78 CNS
XF 498 CNS = tested on: XF 498 CNS

## OCC1OC(n2cnc3c2NC=NC[C@H]3O)CC1O (some centres undefined)
DMS 114 small cell lung
  GI50: > 588 µM
  TGI: 455 µM and > 588 µM
DMS 273 small cell lung
  GI50: > 588 µM
  TGI: 500 µM and > 588 µM
HOP-18 NSCLC
  GI50: 284 µM and > 588 µM
  TGI: 308 µM and > 588 µM
KM20L2 colon
  GI50: > 588 µM
  TGI: > 588 µM
LXFL 529 NSCLC
  GI50: > 588 µM
  TGI: > 588 µM
MDA-N
  TGI: > 500 µM
P388 leukemia
  TGI: 500 µM
P388/ADR leukemia
  TGI: 448 µM
RXF-631 renal
  GI50: 158 µM and > 588 µM
  TGI: 500 µM and > 588 µM
SNB-78 CNS
  GI50: > 588 µM
  TGI: 500 µM and > 588 µM
XF 498 CNS
  TGI: 498 µM

## Brc1ccccc1C=NC12CC3CC(CC(C3)C1)C2
DMS 114 small cell lung
  TGI: > 100 µM
DMS 273 small cell lung
  TGI: > 100 µM
HOP-18 NSCLC
  TGI: > 100 µM
KM20L2 colon
  TGI: > 100 µM
LXFL 529 NSCLC
  TGI: > 100 µM
MDA-N
  TGI: > 73.8 µM
RXF-631 renal
  TGI: > 100 µM
SNB-78 CNS
  TGI: > 100 µM
XF 498 CNS
  TGI: > 100 µM

## O=C1c2cc([N+](=O)[O-])cc3cc([N+](=O)[O-])cc(c23)C(=O)N1CCCNCCNCCCN1C(=O)c2cc([N+](=O)[O-])cc3cc([N+](=O)[O-])cc(c23)C1=O
DMS 114 small cell lung
  TGI: 1.38 µM
DMS 273 small cell lung
  TGI: 0.42 µM
HOP-18 NSCLC
  TGI: 5.63 µM
KM20L2 colon
  TGI: 5.09 µM
LXFL 529 NSCLC
  TGI: 0.326 µM
SNB-78 CNS
  TGI: 1.14 µM
XF 498 CNS
  TGI: 0.436 µM

## CC1=NC(C(C)C)C(=O)O1 (centres undefined)
DMS 114 small cell lung
  TGI: 56.2 µM
DMS 273 small cell lung
  TGI: > 100 µM
HOP-18 NSCLC
  TGI: > 100 µM
KM20L2 colon
  TGI: > 100 µM
LXFL 529 NSCLC
  TGI: > 100 µM
RXF-631 renal
  TGI: > 100 µM
SNB-78 CNS
  TGI: > 100 µM
XF 498 CNS
  TGI: > 100 µM

## COC(=O)C(Cc1ccccc1)NC(=O)Cn1ccnc1[N+](=O)[O-] (centres undefined)
DMS 114 small cell lung
  TGI: > 100 µM
DMS 273 small cell lung
  TGI: > 100 µM
HOP-18 NSCLC
  TGI: > 100 µM
KM20L2 colon
  TGI: > 100 µM
LXFL 529 NSCLC
  TGI: > 100 µM
RXF-631 renal
  TGI: > 100 µM
XF 498 CNS
  TGI: > 100 µM

## COc1ccc(NC(=O)CC(=O)N2N=C(N(CCC#N)c3cccc(C)c3)CC2c2ccccc2)cc1 (centres undefined)
DMS 273 small cell lung
  TGI: > 100 µM
HOP-18 NSCLC
  TGI: > 100 µM
KM20L2 colon
  TGI: > 100 µM
LXFL 529 NSCLC
  TGI: > 100 µM
SNB-78 CNS
  TGI: > 100 µM

## N#CCCSC(=S)C1CCCC1=N (centres undefined)
MDA-N
  TGI: > 100 µM

## COC1OC(COS(=O)(=O)c2ccc(C)cc2)C(O)C(OS(=O)(=O)c2ccc(C)cc2)C1OS(=O)(=O)c1ccc(C)cc1 (centres undefined)
DMS 114 small cell lung
  TGI: > 100 µM
DMS 273 small cell lung
  TGI: > 100 µM
HOP-18 NSCLC
  TGI: > 100 µM
KM20L2 colon
  TGI: > 100 µM
LXFL 529 NSCLC
  TGI: > 100 µM
RXF-631 renal
  TGI: > 100 µM
SNB-78 CNS
  TGI: > 100 µM

## COC1=C2C[C@@H](C)C[C@@H](OC)[C@@H](O)[C@H](C)/C=C(\C)[C@@H](OC(N)=O)[C@H](OC)/C=C\C=C(/C)C(=O)NC(=CC1=O)C2=O
DMS 114 small cell lung
  TGI: 2.14 µM
DMS 273 small cell lung
  TGI: 2.05 µM
HOP-18 NSCLC
  GI50: 0.0288 µM
  TGI: 4.92 µM and 1.28 µM
KM20L2 colon
  GI50: < 0.0347 µM
  TGI: 0.99 µM and 0.886 µM
LXFL 529 NSCLC
  TGI: 14.1 µM
MDA-N
  GI50: 0.00577 µM
  TGI: 8.51 µM
P388 leukemia
  TGI: 0.48 µM
P388/ADR leukemia
  TGI: 1.47 µM
RXF-631 renal
  TGI: 3.35 µM
SNB-78 CNS
  GI50: 0.859 µM
  TGI: 11.7 µM and 7.42 µM
XF 498 CNS
  GI50: 0.0356 µM
  TGI: 1.13 µM and 0.853 µM

## CCC(c1ccc2cc(O)ccc2c1)C(C)(C)C(=O)O (centres undefined)
MDA-N
  TGI: > 100 µM

## CCCC(=O)Nc1ccc2c(c1)CN1C(=O)c3ccccc3C1=N2
MDA-N
  TGI: > 100 µM

## CC(=O)OC1CC2C(C)(C)C(=O)C=C[C@]2(C)C2CCC3(C)C(c4ccoc4)[C@@H](O)[C@H]4O[C@]43[C@]12C (some centres undefined)
DMS 114 small cell lung
  TGI: 41.9 µM
DMS 273 small cell lung
  TGI: 89.1 µM
HOP-18 NSCLC
  TGI: 45.5 µM
KM20L2 colon
  TGI: 33.4 µM
LXFL 529 NSCLC
  TGI: 37 µM
SNB-78 CNS
  TGI: 67.8 µM

## COc1ccc(-c2cc(-c3cc(C)ccc3O)[nH]c(=O)n2)cc1
DMS 114 small cell lung
  TGI: > 100 µM
DMS 273 small cell lung
  TGI: > 100 µM
HOP-18 NSCLC
  TGI: > 100 µM
KM20L2 colon
  TGI: > 100 µM
LXFL 529 NSCLC
  TGI: > 100 µM
RXF-631 renal
  TGI: > 100 µM
SNB-78 CNS
  TGI: > 100 µM

## COC(=O)C1=C(CS(=O)c2ccc([N+](=O)[O-])cc2[N+](=O)[O-])ON(C)C1c1ccccc1 (centres undefined)
DMS 114 small cell lung
  TGI: > 66.4 µM
DMS 273 small cell lung
  TGI: > 80.6 µM
HOP-18 NSCLC
  TGI: > 89.7 µM
KM20L2 colon
  TGI: > 72.6 µM
LXFL 529 NSCLC
  TGI: > 92.8 µM
RXF-631 renal
  TGI: > 100 µM
SNB-78 CNS
  TGI: > 96.5 µM
XF 498 CNS
  TGI: > 100 µM

## CC1=CC(=O)c2c(C=O)c(O)c(O)c(C(C)C)c2C1=O
DMS 114 small cell lung
  TGI: 51.5 µM
DMS 273 small cell lung
  TGI: > 88.5 µM
HOP-18 NSCLC
  TGI: 58 µM
KM20L2 colon
  TGI: > 100 µM
LXFL 529 NSCLC
  TGI: 41.4 µM
SNB-78 CNS
  TGI: > 100 µM
XF 498 CNS
  TGI: 43.9 µM

## c1ccc(CN2CCCCC(Sc3ccccc3)CC2)cc1 (centres undefined)
DMS 114 small cell lung
  TGI: 44.6 µM
DMS 273 small cell lung
  TGI: 25.1 µM
HOP-18 NSCLC
  TGI: > 100 µM
KM20L2 colon
  TGI: 76.3 µM
LXFL 529 NSCLC
  TGI: 32.6 µM
SNB-78 CNS
  TGI: 80.1 µM

## O=C(O)CP(=O)(O)O
MDA-N
  TGI: > 100 µM

## NC(=O)NC1=NC(Cc2ccccc2)C(=O)N1Cc1ccccc1 (centres undefined)
DMS 114 small cell lung
  TGI: > 100 µM
DMS 273 small cell lung
  TGI: > 100 µM
KM20L2 colon
  TGI: > 100 µM
LXFL 529 NSCLC
  TGI: > 100 µM
SNB-78 CNS
  TGI: > 100 µM
XF 498 CNS
  TGI: > 100 µM

## CCCCCCCCCCCCCCCCCC(=O)OCC(COC1OC(CS(=O)(=O)O)C(O)C(O)C1O)OC(=O)CCCCCCCCCCCCCCCCC (centres undefined)
MDA-N
  TGI: > 100 µM

## CSc1nc(C)c(Br)c(=O)n1C1OC(COC(C)=O)C(OC(C)=O)C(OC(C)=O)C1OC(C)=O (centres undefined)
DMS 114 small cell lung
  GI50: > 100 µM and 25.5 µM
  TGI: > 100 µM and 81 µM
DMS 273 small cell lung
  TGI: > 100 µM
HOP-18 NSCLC
  TGI: > 100 µM
KM20L2 colon
  TGI: > 100 µM
LXFL 529 NSCLC
  GI50: > 100 µM and 32.1 µM
  TGI: > 100 µM and 76.4 µM
MDA-N
  TGI: > 100 µM
SNB-78 CNS
  GI50: 17 µM and 63.6 µM
  TGI: 64.8 µM and > 100 µM
XF 498 CNS
  TGI: 43.6 µM

## O=C1NC(c2c(Cl)cccc2Cl)Nc2ccccc21 (centres undefined)
MDA-N
  TGI: 70.5 µM

Reference: PubChem BioAssay (NCI)
